The compounds below were run against recombinant MPTPB enzyme (Mycobacterium tuberculosis, UniProt I6WXK4) (assay: MPTPB enzymatic assay (DiFMUP substrate, fluorescence)). Settings: recombinant MPTPB 50 ng/ml, pH 6.6, 45 minutes at room temperature.
Format: biochemical
Procedure: The compounds of the inventions have been tested in the following enzymatic assay:
Five μl of diluted compound or vehicle (100% DMSO) was distributed to a 96 well plate. 55 μl of DiFMUP 72.7 μM diluted in MPTPB buffer (20 mM Bis Tris HCl pH 6.6, 0.1% Brij 35, 1 mM DL-Dithiothreitol) was added, followed by 40 μl of recombinant MPTPB enzyme (50 ng/ml) diluted in MPTPB buffer in order to start the reaction. After 45 minutes incubation at room temperature fluorescence intensity was measured on a Perkin-Elmer Fusion spectrofluorimeter (excitation at 355 nm, emission at 460 nm, for 0.2 s).
Examples of inhibitory activities for compounds of the invention are set out in Table I below.

Chain of recombinant MPTPB enzyme (I6WXK4 whole entry, looked up): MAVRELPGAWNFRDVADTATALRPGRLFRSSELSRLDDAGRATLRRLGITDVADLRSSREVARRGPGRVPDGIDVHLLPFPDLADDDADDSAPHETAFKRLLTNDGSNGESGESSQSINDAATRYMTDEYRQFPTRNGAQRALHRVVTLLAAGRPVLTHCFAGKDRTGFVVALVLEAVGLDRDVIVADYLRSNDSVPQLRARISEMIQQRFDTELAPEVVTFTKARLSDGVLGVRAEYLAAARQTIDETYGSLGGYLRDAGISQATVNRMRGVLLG

SMILES | IC50 [nM]
CCCCCCCCCCCCNS(=O)(=O)c1ccc(CN(Cc2ccccc2F)C(=O)C(=O)O)s1 [Example 6, [({5-[(dodecylamino)sulfonyl]-2-thienyl}methyl)(2-fluorobenzyl)amino]-(oxo)acetic acid] | 740
O=C(O)C(=O)N(Cc1cccc(Cl)c1)Cc1ccc(S(=O)(=O)NCCC(c2ccccc2)c2ccccc2)s1 [Example 14, {(3-chlorobenzyl) [(5-{[(3,3-diphenylpropyl)amino]sulfonyl}-2-thienyl)-methyl]amino}(oxo)acetic acid] | 790
CC(CNS(=O)(=O)c1ccc(CN(Cc2cccc(Cl)c2)C(=O)C(=O)O)s1)c1ccc(Cl)cc1 (stereo not drawn) [Example 24, ((3-chlorobenzyl){[5-({[2-(4-chlorophenyl)propyl]amino}sulfonyl)-2-thienyl]methyl}amino)(oxo)acetic acid] | 770
